Results taken from patent publication US9718774B2, “Indole carboxamide derivatives as P2X7 receptor antagonist” (ACTELION PHARMACEUTICALS LTD, priority 2012, dated 2017).

target: T1, human recombinant P2X7 receptor (Homo sapiens, UniProt Q99572); test: YO-PRO assay: P2X7 receptor antagonistic activity in HEK cells stably expressing P2X7; assay type: cell-based; conditions: antagonistic activity with respect to the P2X7 receptor, read-out: IC50
T1 construct: expressed in transfected cells
T1 sequence (Q99572 1-595): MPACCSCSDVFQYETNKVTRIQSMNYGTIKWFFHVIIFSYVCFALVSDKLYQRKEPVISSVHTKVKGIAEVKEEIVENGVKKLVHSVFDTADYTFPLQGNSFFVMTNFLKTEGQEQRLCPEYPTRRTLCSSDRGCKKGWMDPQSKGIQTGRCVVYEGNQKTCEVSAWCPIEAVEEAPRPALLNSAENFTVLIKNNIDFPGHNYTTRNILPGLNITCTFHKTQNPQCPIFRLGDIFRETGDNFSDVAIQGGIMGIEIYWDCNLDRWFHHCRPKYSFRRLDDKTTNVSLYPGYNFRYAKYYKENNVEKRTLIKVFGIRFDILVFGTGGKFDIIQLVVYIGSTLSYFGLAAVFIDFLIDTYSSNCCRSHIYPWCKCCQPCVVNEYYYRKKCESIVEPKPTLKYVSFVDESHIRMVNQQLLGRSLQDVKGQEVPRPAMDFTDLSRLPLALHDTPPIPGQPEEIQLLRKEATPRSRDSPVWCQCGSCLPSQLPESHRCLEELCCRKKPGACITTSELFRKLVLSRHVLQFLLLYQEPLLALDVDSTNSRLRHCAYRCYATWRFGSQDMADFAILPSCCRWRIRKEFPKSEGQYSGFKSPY
Experimental: The P2X7 receptor antagonistic activity of the compounds of formula (I) is determined in accordance with the following experimental method.
Cell Line Generation and YO-PRO Assay
Cell line generation was performed in general according to established molecular cloning protocols. Specifically, RNA was extracted from human whole blood using the Qiagen RNeasy kit (Qiagen, CH) according to the manufacturer's instructions. Subsequently cDNA was made (Superscript II, Invitrogen AG, CH) and the human P2X7 gene (genbank ref. BC011913) was amplified with the following primers: […] and […]. The amplified sequence was subsequently ligated into a pcDNA3.1 (+) NotI, NheI digested plasmid. Human embryonic kidney (HEK) cells (ATCC CRL—1573, Manassas, Va., USA) were transfected with the pcDNA3.1 (+).hP2X7 plasmid using lipofectamine 2000 (Invitrogen AG, CH) according to the manufacturer's instructions. Following a 24 h exposure to DNA, cells were trypsinized and re-seeded at low density in the presence of 250 μg Geneticin. Geneticin resistant cells were then selected during two consecutive rounds of cloning by serial limiting dilution with visual inspection. Individual clones were screened for P2X7 expression by applying ATP and recording the resultant uptake of YO-PRO1. Specific cell clones were chosen based on RNA and protein expression. HEK cells stably expressing P2X7 were used to screen drugs using the YO-PRO1 assay. Cells were grown to confluency in adherent culture at 37° C. in a humidified 5% CO2 incubator (split 1/5 every 3-4 days with DMEM, 10% FCS, 1% Penicillin/Streptomycin, 250 μg/ml Geneticin). Adherent cells were detached by incubation with Trypsine (1 ml per 165 cm^2 dish) for 2 minutes, then washed off with 10 ml PBS (without Mg^2+ and Ca^2+), and resuspended in DMEM, 10% FCS, 1% Penicillin/Streptomycin, no Geneticin. 10′000 cells per well (48 hours before the assay) or 25′000 cells per well (Vi-cell XR (Beckman Coulter) (24 hours before the assay) in 50 μl full medium were seeded on 384-well black-wall, clear bottom plates, that were coated before with 10 μl per well Poly-L-Lysine, incubated for 30-60 minutes at 37° C. and washed once with PBS. Medium was removed from cells and 50 μl of assay buffer containing 0.5 μM YO-PRO-1 was added into the wells. Solutions of antagonist compounds were prepared by serial dilutions of a 10 mM DMSO solution of the antagonist into PBS using a BioMek (Beckman Coulter). Each concentration was performed in duplicate. For IC50 measurements 10 concentration points were measured (10 μM being the highest concentration followed by 9 serial dilution steps 1/3). The cells were incubated with the antagonists of the present invention together with ATP at a final concentration of 250 μM for 90 minutes. During this time period, four time points were taken. Each time point comprised the average of several measurements made within a few seconds. Fluorescence was measured in the FLIPR tetra (Molecular Devices) using the filters appropriate for YO-PRO-1 fluorescence (excitation 485/20, emission 530/25). The FLIPR tetra was equipped with Molecular Devices Screen Works system control software to define and run experimental protocols. […] For IC50 measurements the maximum intensity is plotted against the concentration of compound to determine IC50 values.

Compound | IC50 [µM]
Cc1ncc(C(CNC(=O)c2c(Cl)cc3[nH]ccc3c2Cl)N2CCOCC2)cn1 (racemic) [Example 94, rac-4,6-Dichloro-1H-indole-5-carboxylic acid [2-(2-methyl-pyrimidin-5-yl)-2-morpholin-4-yl-ethyl]-amide] | 0.211
Cc1noc(C)c1C(CNC(=O)c1ccc2[nH]ccc2c1Cl)N1CCCCC1 (racemic) [Example 54, rac-4-Chloro-1H-indole-5-carboxylic acid [2-(3,5-dimethyl-isoxazol-4-yl)-2-piperidin-1-yl-ethyl]-amide] | 1.85
O=C(NCC(c1cc(F)cc(F)c1)N1CCOCC1)c1ccc2[nH]ccc2c1Cl (racemic) [Example 18, rac-4-Chloro-1H-indole-5-carboxylic acid [2-(3,5-difluoro-phenyl)-2-morpholin-4-yl-ethyl]-amide] | 0.019
Cc1ncc(C(CNC(=O)c2ccc3[nH]ccc3c2C)N2CCOCC2)cn1 (single isomer, unassigned) [Example 106, 4-Methyl-1H-indole-5-carboxylic acid [2-(2-methyl-pyrimidin-5-yl)-2-morpholin-4-yl-ethyl]-amide] | 0.025
Cc1ccc(C(CNC(=O)c2ccc3[nH]ccc3c2Cl)N2CCOCC2)cn1 (racemic) [Example 7, rac-4-Chloro-1H-indole-5-carboxylic acid [2-(6-methyl-pyridin-3-yl)-2-morpholin-4-yl-ethyl]-amide] | 0.019
CCCc1cc(C(=O)NCC(c2cnc(C)nc2)N2CCOCC2)c(Cl)c2cc[nH]c12 (racemic) [Example 111, rac-4-Chloro-7-propyl-1H-indole-5-carboxylic acid [2-(2-methyl-pyrimidin-5-yl)-2-morpholin-4-yl-ethyl]-amide] | 0.018
Cc1ncc(C(CNC(=O)c2ccc3[nH]ccc3c2Cl)N2CCCOCC2)cn1 (racemic) [Example 81, rac-4-Chloro-1H-indole-5-carboxylic acid [2-(2-methyl-pyrimidin-5-yl)-2-[1,4]oxazepan-4-yl-ethyl]-amide] | 0.026
Cc1ncc(C(CNC(=O)c2ccc3[nH]ccc3c2Cl)N2CCS(=O)(=O)CC2)cn1 (racemic) [Example 92, rac-4-Chloro-1H-indole-5-carboxylic acid [2-(1,1-dioxo-thiomorpholin-4-yl)-2-(2-methyl-pyrimidin-5-yl)-ethyl]-amide] | 0.098
COCCCc1cc(C(=O)NCC(c2cnc(C)nc2)N2CCOCC2)c(Cl)c2cc[nH]c12 (racemic) [Example 99, rac-4-Chloro-7-(3-methoxy-propyl)-1H-indole-5-carboxylic acid [2-(2-methyl-pyrimidin-5-yl)-2-morpholin-4-yl-ethyl]-amide] | 0.021
O=C(NCC(c1ccc(Cl)cc1Cl)N1CCOCC1)c1ccc2[nH]ccc2c1Cl (racemic) [Example 39, rac-4-Chloro-1H-indole-5-carboxylic acid [2-(2,4-dichloro-phenyl)-2-morpholin-4-yl-ethyl]-amide] | 0.455
O=C(NCC(c1cccnc1)N1CCCCC1)c1ccc2[nH]ccc2c1Cl (racemic) [Example 46, rac-4-Chloro-1H-indole-5-carboxylic acid (2-piperidin-1-yl-2-pyridin-3-yl-ethyl)-amide] | 0.039
Cn1cc(C(CNC(=O)c2ccc3[nH]ccc3c2Cl)N2CCCCC2)cn1 (racemic) [Example 29, rac-4-Chloro-1H-indole-5-carboxylic acid [2-(1-methyl-1H-pyrazol-4-yl)-2-piperidin-1-yl-ethyl]-amide] | 0.161
O=C(NCC(c1ccnc(O)c1)N1CCOCC1)c1ccc2[nH]ccc2c1Cl (racemic) [Example 91, rac-4-Chloro-1H-indole-5-carboxylic acid [2-morpholin-4-yl-2-(2-hydroxypyridin-4-yl)-ethyl]-amide] | 0.353

The remaining molecules from weak to strong by IC50, led by results:

IC50 [µM] | Compound
1.99 | Cc1noc(C)c1C(CNC(=O)c1ccc2[nH]ccc2c1Cl)N1CCOCC1 (racemic) [Example 53, rac-4-Chloro-1H-indole-5-carboxylic acid [2-(3,5-dimethyl-isoxazol-4-yl)-2-morpholin-4-yl-ethyl]-amide]
0.277 | Cc1ncc(C(CNC(=O)c2ccc3[nH]ccc3c2Cl)N2CCN(C(=O)OC(C)(C)C)CC2)cn1 (racemic) [Example 89, rac-4-[2-[(4-Chloro-1H-indole-5-carbonyl)-amino]-1-(2-methyl-pyrimidin-5-yl)-ethyl]-piperazine-1-carboxylic acid tert-butyl ester]
0.163 | O=C(NCC(c1cccc(F)c1)N1CCCCC1)c1ccc2[nH]ccc2c1Cl (racemic) [Example 43, rac-4-Chloro-1H-indole-5-carboxylic acid [2-(3-fluoro-phenyl)-2-piperidin-1-yl-ethyl]-amide]
0.073 | O=C(NCC(c1ccc(Cl)cc1F)N1CCOCC1)c1ccc2[nH]ccc2c1Cl (racemic) [Example 40, rac-4-Chloro-1H-indole-5-carboxylic acid [2-(4-chloro-2-fluoro-phenyl)-2-morpholin-4-yl-ethyl]-amide]
0.061 | O=C(NCC(c1ccc(F)cc1F)N1CCOCC1)c1ccc2[nH]ccc2c1Cl (racemic) [Example 34, rac-4-Chloro-1H-indole-5-carboxylic acid [2-(2,4-difluoro-phenyl)-2-morpholin-4-yl-ethyl]-amide]
0.034 | O=C(NCC(c1ccc(C(F)(F)F)cc1)N1CCOCC1)c1ccc2[nH]ccc2c1Cl (racemic) [Example 49, rac-4-Chloro-1H-indole-5-carboxylic acid [2-morpholin-4-yl-2-(4-trifluoromethyl-phenyl)-ethyl]-amide]
0.033 | CC(=O)c1cc(C(=O)NCC(c2cnc(C)nc2)N2CCOCC2)c(Cl)c2cc[nH]c12 (racemic) [Example 102, rac-7-Acetyl-4-chloro-1H-indole-5-carboxylic acid [2-(2-methyl-pyrimidin-5-yl)-2-morpholin-4-yl-ethyl]-amide]
0.016 | CCc1cc(C(=O)NCC(c2cnc(C)nc2)N2CCOCC2)c(Cl)c2cc[nH]c12 (single isomer, unassigned) [Example 119, 4-Chloro-7-ethyl-1H-indole-5-carboxylic acid [2-(2-methyl-pyrimidin-5-yl)-2-morpholin-4-yl-ethyl]-amide]
0.015 | O=C(NCC(c1ccc(Cl)cc1)N1CCOCC1)c1ccc2[nH]ccc2c1Cl (racemic) [Example 38, rac-4-Chloro-1H-indole-5-carboxylic acid [2-(4-chloro-phenyl)-2-morpholin-4-yl-ethyl]-amide]
0.014 | COc1ccc(C(CNC(=O)c2ccc3[nH]ccc3c2Cl)N2CCOCC2)cn1 (racemic) [Example 11, rac-4-Chloro-1H-indole-5-carboxylic acid [2-(6-methoxy-pyridin-3-yl)-2-morpholin-4-yl-ethyl]-amide]
0.0092 | O=C(NCC(c1ccc(F)cc1)N1CCOCC1)c1ccc2[nH]ccc2c1Cl (racemic) [Example 17, rac-4-Chloro-1H-indole-5-carboxylic acid [2-(4-fluoro-phenyl)-2-morpholin-4-yl-ethyl]-amide]
